Here are results for 31 compounds from patent US20250129073A1, “INHIBITOR OF RECEPTOR-INTERACTING PROTEIN KINASE 1, AND PREPARATION METHOD AND USE THEREFOR” (CHINA PHARMACEUTICAL UNIVERSITY, priority 2021, published 2025).

RIPK1 kinase, sequence (Q13546 whole entry): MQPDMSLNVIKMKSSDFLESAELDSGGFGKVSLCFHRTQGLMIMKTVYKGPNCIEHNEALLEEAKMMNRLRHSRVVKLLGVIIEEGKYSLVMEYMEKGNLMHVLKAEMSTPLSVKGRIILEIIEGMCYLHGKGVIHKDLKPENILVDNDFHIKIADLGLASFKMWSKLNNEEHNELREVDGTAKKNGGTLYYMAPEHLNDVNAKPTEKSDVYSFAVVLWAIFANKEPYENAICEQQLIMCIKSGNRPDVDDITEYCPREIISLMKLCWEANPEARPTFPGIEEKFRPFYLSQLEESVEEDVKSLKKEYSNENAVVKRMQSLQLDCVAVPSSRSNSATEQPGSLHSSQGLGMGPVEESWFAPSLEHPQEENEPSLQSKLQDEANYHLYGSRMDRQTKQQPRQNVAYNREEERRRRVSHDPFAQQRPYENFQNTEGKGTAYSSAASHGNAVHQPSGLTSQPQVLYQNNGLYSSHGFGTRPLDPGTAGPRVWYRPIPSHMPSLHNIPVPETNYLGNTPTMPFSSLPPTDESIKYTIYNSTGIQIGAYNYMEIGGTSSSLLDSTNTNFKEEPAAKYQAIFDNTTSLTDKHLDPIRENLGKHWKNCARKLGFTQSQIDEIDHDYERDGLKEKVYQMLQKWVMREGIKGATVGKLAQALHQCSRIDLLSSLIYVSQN

The first assay deals with U937 cells. The experiment in a line: Cell anti-necroptosis activity assay (LPS + Z-VAD-FMK, CCK8). Format: cell-based. The conditions noted are these: Homo sapiens, U-937; PMA-differentiated U937, LPS 100 ng/ml + Z-VAD-FMK 20 μM, 24 h; read-out: EC50 of inhibition of necroptosis. As to the method:
Materials: U937 cell line (human myeloid leukemia cells), RPMI 1640 medium (purchased from Gibco, USA), penicillin-streptomycin double antibody (purchased from Gibco, USA), fetal bovine serum (purchased from genetic, USA), tetradecanoylphorbol acetate (purchased from biyuntian Biotechnology Co., Ltd.), CCK8 cell proliferation detection kit (purchased from biyuntian Biotechnology Co., Ltd), Z-VAD-FMK (from APExBIO, USA) and LPS (from Sigma, USA).
U937 cells were cultured in RPMI 1640 containing 10% heat inactivated fetal bovine serum and 1% penicillin-streptomycin in a constant temperature cell incubator at 37° C. and 5% CO2, and subcultured every 1-2 days. Human monocytic cell line U937 cells could be induced to differentiate into mature monocytes/macrophages after stimulation with tetradecanoylphorbol acetate (PMA). The cells in the logarithmic growth phase were seeded in 96 well plates at a density of 4×10^4 cells/well and cultured. PMA 100 ng/ml was added for 24 h, and then the fresh medium was changed. The necroptosis model was constructed by stimulation of LPS and caspase inhibitor Z-VAD-FMK. In the experimental groups, LPS (100 ng/ml) was added for 1 hour, and then the solvent control (DMSO) or different concentrations of compounds to be tested (30 μM, 10 μM, 3 μM, 1 μM, 300 nM, 100 nM, 30 nM 7 concentrations in total) for 1 h, and then the experimental groups were treated with caspase inhibitor Z-VAD-FMK (20 μM). The cell viability was detected after 24 h of culture. The control groups were not treated with LPS, drugs and Z-VAD-FMK. No cells were added to the blank hole, only the culture medium. Each group is set with 4 parallel. CCK8 cell proliferation assay kit was used to detect the cell viability and survival rate, and the operation was carried out according to the kit instructions. The cell supernatant was added with 10 μL CCK8 detection reagent, and the cell absorbance (450 nm) was detected by a microplate reader after 0.5 h. Calculate the cell death rate (%)=(average absorbance of control well−average absorbance of experimental group)/(average absorbance of control well−average absorbance of the blank well)×100. Finally, the half effective concentration (EC50) of the drug was calculated by GraphPad Prism 7.0® software.
One may read the EC50 as the concentration needed to bring the measured effect to its halfway point. Turning to `Cn1ccc2ccc(C(=O)N3CCC4(CC3)CCN(Cc3cc(F)ccc3F)C4=O)cc21` [Compound 49, 2-(2,5-difluorobenzyl)-8-(1-methyl-1H-indole-6-carbonyl)-2,8-diazaspiro[4.5]decan-1-one], the concentration giving a half-maximal response (EC50) was 1110 nM.

The next assay concerns the target RIPK1 kinase (Homo sapiens (Human), UniProt Q13546). The experiment in a line: RIPK1 kinase inhibitory assay (ADP-Glo). In kind it is biochemical.
Details: not given
As to the method: Materials and Instruments: ADP-Glo kinase kit (purchased from Promega), RIPK1 GST-Th-Tag (purchased from Bps Bioscience), MBP substrate (purchased from Millipore), nunc 384-well plate, ATP fluorescence analyzer Paradigm detection platform (purchased from Beckman coulter)
The compounds were diluted in DMSO and configured into a solution with a final concentration of 10 mM; Dilute RIP1 kinase from 140 ng/μL to 20 ng/μL for use. Dilute 10 mM of ATP to 100 μM for later use; Dilute 5 mg/mL of MBP to 1 mg/mL for later use. Appropriate embodiments were added into the well of the 384-well plate, 10 μl […] ATP was evenly mixed with 1 μl 1 mg/mL MB P, the mixed solution was added to the well, and 2 μL […] RIP1 kinase was added to the hole, and then incubated at room temperature for 1 h. Subsequently, 5 μL ADP-Glo reagent was added to each well and incubated at room temperature for 40 min. Then, 10 μL ADP-Glo detection reagent was added to each well and incubated at room temperature for 30 min. Finally, the RLU value (relative light unit) of each well was measured by ATP fluorometer, and each sample was repeated twice. Inhibition rate=(RLU value of blank group−RLU value of drug administration group)/RLU value of blank group×100%.
On the technique in general: ADP-Glo first removes unused ATP, then detects ADP through luciferase.
What is called IC50 is the concentration needed to halve the response being measured. Low values mean inhibition by little substance, high ones a need for much substance. `Cn1ccc2ccc(C(=O)N3CCC4(CC3)CCN(Cc3cc(F)ccc3F)C4=O)cc21` [Compound 49, 2-(2,5-difluorobenzyl)-8-(1-methyl-1H-indole-6-carbonyl)-2,8-diazaspiro[4.5]decan-1-one] displayed a half-maximal inhibitory concentration (IC50) of 92 nM. In other words, the double-digit nanomolar range.

Still in this assay, the particulars now being: 10 μM compound; read-out: Inhibition rate of RIPK1 at 10 μM (%).
In general, inhibition refers to the percentage by which the read-out fell short of the control. For the compound `Cn1ccc2ccc(C(=O)N3CCC4(CC3)CCN(Cc3cc(F)ccc3F)C4=O)cc21` [Compound 49, 2-(2,5-difluorobenzyl)-8-(1-methyl-1H-indole-6-carbonyl)-2,8-diazaspiro[4.5]decan-1-one], the inhibition at 10 µM is > 50%.

As for `O=C(c1ccccc1)N1CCC2(CC1)CCN(Cc1cc(F)cc(F)c1F)C2=O` [Compound 53, 8-benzoyl-2-(2,3,5-trifluorobenzyl)-2,8-diazaspiro[4.5]decan-1-one], the inhibition at 10 µM is > 50%.

With `CN1C(=O)N(Cc2cccc(Cl)c2)C(=O)C12CCN(C(=O)c1ccccc1)CC2` [Compound 3, 8-benzoyl-3-(3-chlorobenzyl)-1-methyl-1,3,8-triazaspiro[4.5]decane-2,4-dione], the inhibition at 10 µM was found to be 11%.

As for `Cn1cnc2ccc(C(=O)N3CCC4(CC3)CCN(Cc3ccccc3)C4=O)cc21` [Compound 26, 2-benzyl-8-(1-methyl-1H-benzo[d]imidazole-6-carbonyl)-2,8-diazaspiro[4.5]decan-1-one], the inhibition at 10 µM was found to be 14%.

In the case of `N#Cc1ccc(N2CCC3(CCN(Cc4cc(F)ccc4F)C3=O)CC2)nn1` [Compound 56, 6-(2-(2,5-difluorobenzyl)-1-oxo-2,8-diazaspiro[4.5]decan-8-yl)pyridazine-3-carbonitrile], the inhibition at 10 µM was determined as 17%.

Take `O=C(c1ccccc1)N1CCC2(C=NN(Cc3ccc(F)cc3)C2=O)CC1` [Compound 65, 8-benzoyl-2-(4-fluorobenzyl)-2,3,8-triazaspiro[4.5]dec-3-en-1-one]: the inhibition at 10 µM is 27%.

With `O=C(c1ccccc1)N1CCC2(C=NN(Cc3cccc(F)c3)C2=O)CC1` [Compound 64, 8-benzoyl-2-(3-fluorobenzyl)-2,3,8-triazaspiro[4.5]dec-3-en-1-one], the inhibition at 10 µM is > 50%.

On to `Cn1cc(C(=O)N2CCC3(CC2)CCN(Cc2ccccc2)C3=O)c2ccccc21` [Compound 27, 2-benzyl-8-(1-methyl-1H-indole-3-carbonyl)-2,8-diazaspiro[4.5]decan-1-one], for which the inhibition at 10 µM was found to be 46%.

Turning to `O=C1N(Cc2ccccc2)CCC12CCN(S(=O)(=O)c1ccccc1)CC2` [Compound 20, 2-benzyl-8-(phenylsulfonyl)-2,8-diazaspiro [4.5]decan-1-one], the inhibition at 10 µM was determined as 21%.

For `O=C(c1ccccc1)N1CCC2(CC1)CCN(Cc1ccc(F)c(F)c1F)C2=O` [Compound 38, 8-benzoyl-2-(2,3,4-trifluorobenzyl)-2,8-diazaspiro[4.5]decan-1-one], the inhibition at 10 µM is > 50%.

Regarding `O=C(c1ccccc1)N1CCC2(CC1)CCN(Cc1c(F)cccc1Cl)C2=O` [Compound 45, 8-benzoyl-2-(2-chloro-6-fluorobenzyl)-2,8-diazaspiro[4.5]decan-1-one], the inhibition at 10 µM came to 43%.

Regarding `O=C(c1ccccc1)N1CCC2(CC1)CCN(Cc1cccc(Cl)c1)C2=O` [Compound 10, 8-benzoyl-2-(3-chlorobenzyl)-2,8-diazaspiro[4.5]decan-1-one], the inhibition at 10 µM was > 50%.

On to `O=C(c1ccccc1)N1CCC2(CC1)CCN(Cc1cc(F)c(F)cc1F)C2=O` [Compound 41, 8-benzoyl-2-(2,4,5-trifluorobenzyl)-2,8-diazaspiro[4.5]decan-1-one], for which the inhibition at 10 µM was > 50%.

Consider `O=C1N(Cc2ccccc2)CCC12CCN(c1ncccn1)CC2` [Compound 36, 2-benzyl-8-(pyrimidin-2-yl)-2,8-diazaspiro[4.5]decan-1-one], for which the inhibition at 10 µM is > 50%.

Take `O=C(c1ccccc1)N1CCC2(CC1)N=CN(Cc1ccccc1F)C2=O` [Compound 60, 8-benzoyl-3-(2-fluorobenzyl)-1,3,8-triazaspiro[4.5]dec-1-en-4-one]: the inhibition at 10 µM is > 50%.

For `CN1C(=O)N(Cc2ccccn2)C(=O)C12CCN(C(=O)c1ccccc1)CC2` [Compound 6, 8-benzoyl-1-methyl-3-(pyridin-2-ylmethyl)-1,3,8-triazaspiro [4.5]decane-2,4-dione], the inhibition at 10 µM worked out at 4%.

Consider `N#Cc1cc(N2CCC3(CCN(Cc4cc(F)ccc4F)C3=O)CC2)ncn1` [Compound 58, 6-(2-(2,5-difluorobenzyl)-1-oxo-2,8-diazaspiro[4.5]decan-8-yl)pyrimidine-4-carbonitrile], for which the inhibition at 10 µM is > 50%.

In the case of `O=C(c1ccc2ccoc2c1)N1CCC2(CC1)CCN(Cc1cc(F)ccc1F)C2=O` [Compound 76, 8-(benzofuran-6-carbonyl)-2-(2,5-difluorobenzyl)-2,8-diazaspiro [4.5]decan-1-one], the inhibition at 10 µM is > 50%.

As for `O=C(c1ccccc1)N1CCC2(CC1)CCN(Cc1cc(Cl)ccc1F)C2=O` [Compound 47, 8-benzoyl-2-(5-chloro-2-fluorobenzyl)-2,8-diazaspiro[4.5]decan-1-one], the inhibition at 10 µM was > 50%.

Turning to `O=C(c1ccccc1)N1CCC2(C=NN(Cc3cccc(Cl)c3)C2=O)CC1` [Compound 70, 8-benzoyl-2-(3-chlorobenzyl)-2,3,8-triazaspiro[4.5]dec-3-en-1-one], the inhibition at 10 µM amounted to 44%.

For the compound `O=C(c1c[nH]c2ccccc12)N1CCC2(CC1)CCN(Cc1ccccc1)C2=O` [Compound 23, 2-benzyl-8-(1H-indole-3-carbonyl)-2,8-diazaspiro[4.5]decan-1-one], the inhibition at 10 µM is > 50%.

`O=C(c1cnco1)N1CCC2(CC1)CCN(Cc1ccccc1F)C2=O` [Compound 30, 2-(2-fluorobenzyl)-8-(oxazole-5-carbonyl)-2,8-diazaspiro[4.5]decan-1-one]: the inhibition at 10 µM is > 50%.

Take `CN1C(=O)N(CC2CCCCC2)C(=O)C12CCN(C(=O)c1ccccc1)CC2` [Compound 7, 8-benzoyl-3-(cyclohexylmethyl)-1-methyl-1,3,8-triazaspiro [4.5]decane-2,4-dione]: the inhibition at 10 µM came out at 34%.

For `O=C1N(Cc2ccccc2)CCC12CCN(Cc1ccccc1)CC2` [Compound 19, 2,8-dibenzyl-2,8-diazaspiro[4.5]decan-1-one], the inhibition at 10 µM came to 16%.

Regarding `O=C(c1ccccc1)N1CCC2(CC1)CCN(Cc1ccccn1)C2=O` [Compound 14, 8-benzoyl-2-(pyridin-2-ylmethyl)-2,8-diazaspiro[4.5]decan-1-one], the inhibition at 10 µM was > 50%.

As for `O=C(c1ccccc1)N1CCC2(CC1)CCN(Cc1cccnc1)C2=O` [Compound 13, 8-benzoyl-2-(pyridin-3-ylmethyl)-2,8-diazaspiro[4.5]decan-1-one], the inhibition at 10 µM is > 50%.

Consider `O=C(c1ccccc1)N1CCC2(CCCN(Cc3ccccc3)C2=O)CC1` [Compound 74, 9-benzoyl-2-benzyl-2,9-diazaspiro[5.5]undecan-1-one], for which the inhibition at 10 µM was > 50%.

With `O=C1N(Cc2cc(F)ccc2F)CCC12CCN(c1ncccn1)CC2` [Compound 51, 2-(2,5-difluorobenzyl)-8-(pyrimidin-2-yl)-2,8-diazaspiro[4.5]decan-1-one], the inhibition at 10 µM is 41%.

Turning to `O=C(c1cnco1)N1CCC2(CC1)CCN(Cc1ccccc1)C2=O` [Compound 18, 2-benzyl-8-(oxazole-5-carbonyl)-2,8-diazaspiro[4.5]decan-1-one], the inhibition at 10 µM was > 50%.

`N#Cc1ccnc(N2CCC3(CCN(Cc4cc(F)ccc4F)C3=O)CC2)n1` [Compound 52, 2-(2-(2,5-difluorobenzyl)-1-oxo-2,8-diazaspiro[4.5]decan-8-yl) pyrimidine-4-carbonitrile]: the inhibition at 10 µM was > 50%.

Regarding `O=C(c1ccccc1)N1CCC2(C=NN(Cc3cccc(C(F)(F)F)c3)C2=O)CC1` [Compound 68, 8-benzoyl-2-(3-(trifluoromethyl)benzyl)-2,3,8-triazaspiro[4.5]dec-3-en-1-one], the inhibition at 10 µM was 13%.
